Assays:
[1] = target: Adenosine A2A receptor (Tag-lite Adenosine A2A labeled cells) (Homo sapiens (Human), UniProt P29274); experiment: A2A Tag-lite HTRF Assay; format: binding; details: displacement of Adenosine A2A Receptor Red antagonist fluorescent ligand, 12.5 nM
Source text: The final concentration of DMSO was 1%.

[2] = target: human adenosine A2B receptor (Homo sapiens (Human), UniProt P29275); experiment: Adenosine A2B Receptor Cyclic AMP GS Assay; format: cell-based; details: HEK-293 cells, agonist NECA at 12 nM, cAMP accumulation; read-out: A2B—cAMP_EC50
Sequence of human adenosine A2B receptor (P29275 whole entry): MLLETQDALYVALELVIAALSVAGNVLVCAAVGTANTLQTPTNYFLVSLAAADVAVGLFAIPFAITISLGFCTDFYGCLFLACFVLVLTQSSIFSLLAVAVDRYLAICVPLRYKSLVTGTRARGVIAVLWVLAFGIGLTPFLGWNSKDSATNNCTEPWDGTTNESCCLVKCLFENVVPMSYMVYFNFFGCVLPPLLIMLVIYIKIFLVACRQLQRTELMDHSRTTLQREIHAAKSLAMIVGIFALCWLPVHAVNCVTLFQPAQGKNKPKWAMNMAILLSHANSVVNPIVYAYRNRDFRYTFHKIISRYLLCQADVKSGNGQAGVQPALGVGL
Protocol: Stably transfected HEK-293 cells expressing the human adenosine A2B receptor (Perkin Elmer) were maintained in MEM culture medium with 10% FBS and 100 μg/mL Geneticin (Life Technologies). 18 to 24 hours prior to assay, geneticin was removed from culture. The cisbio cAMP-GS Dynamic kit utilizing the FRET (Fluorescence Resonance Energy Transfer) technology was used to measure cAMP accumulation in the cells. Compounds of the present disclosure at an appropriate concentration were mixed with 10000 cells/well in white 96 well half area plates (Perkin Elmer) for 30 min at room temperature gently shaking. Agonist, NECA (R&D Technologies) at 12 nM was added to each well for 60 min at room temperature gently shaking. Detection reagents, d2-labeled cAMP (acceptor) and anti-cAMP cryptate (donor) were added to each well for 60 min at RT gently shaking. Plates were read on Pherastar (BMG Labtech), fluorescence ratio 665/620 was calculated and EC50 determination was performed by fitting the curve of percent of control versus the log of the compound concentration using GraphPad Prism.

Sequence of Adenosine A2A receptor (Tag-lite Adenosine A2A labeled cells) (P29274 whole entry): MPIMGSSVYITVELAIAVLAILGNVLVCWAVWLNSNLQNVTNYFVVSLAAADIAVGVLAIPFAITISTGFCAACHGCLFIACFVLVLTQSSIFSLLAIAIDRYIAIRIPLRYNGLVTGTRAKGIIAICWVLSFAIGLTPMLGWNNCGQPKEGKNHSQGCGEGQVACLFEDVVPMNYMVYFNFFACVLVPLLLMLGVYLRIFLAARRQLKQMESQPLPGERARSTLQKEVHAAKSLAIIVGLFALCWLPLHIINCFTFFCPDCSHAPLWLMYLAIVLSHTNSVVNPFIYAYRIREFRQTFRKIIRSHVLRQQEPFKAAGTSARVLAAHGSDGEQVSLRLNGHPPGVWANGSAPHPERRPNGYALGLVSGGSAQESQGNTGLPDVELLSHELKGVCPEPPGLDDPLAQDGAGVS

Row | Compound | Ki [1] [nM] | EC50 [2] [nM]
1 | CCn1nccc1-c1c(-c2cccc(C#N)c2)nc(N)c2nn(Cc3ncccc3F)cc12 [Example 14, 3-(7-amino-4-(1-ethyl-1H-pyrazol-5-yl)-2-((3-fluoropyridin-2-yl)methyl)-2H-pyrazolo[3,4-c]pyridin-5-yl)benzonitrile] | ≤ 10 | ≤ 10
2 | N#Cc1cccc(-c2nc(N)c3nn(Cc4ccccn4)nc3c2-c2ccc3nccnc3c2)c1F [Example 43, 3-(4-amino-2-(pyridin-2-ylmethyl)-7-(quinoxalin-6-yl)-2H-[1,2,3]triazolo[4,5-c]pyridin-6-yl)-2-fluorobenzonitrile] | ≤ 10 | 100 to 1000
3 | N#Cc1cccc(-c2nc(N)c3nn(Cc4ccccn4)cc3c2-c2ccncn2)c1 [Example 8, 3-(7-amino-2-(pyridin-2-ylmethyl)-4-(pyrimidin-4-yl)-2H-pyrazolo[3,4-c]pyridin-5-yl)benzonitrile] | ≤ 10 | ≤ 10
4 | Cc1cccc(Cn2nc3c(N)nc(-c4cccc(C#N)c4)c(-c4ccncc4)c3n2)n1 [Example 25, 3-(4-amino-2-((6-methylpyridin-2-yl)methyl)-7-(pyridin-4-yl)-2H-[1,2,3]triazolo[4,5-c]pyridin-6-yl)benzonitrile] | ≤ 10 | ≤ 10
5 | N#Cc1cccc(-c2nc(N)c3cn(Cc4ccccn4)nc3c2-c2ccncc2)c1 [Example 6, 3-(4-amino-2-(pyridin-2-ylmethyl)-7-(pyridin-4-yl)-2H-pyrazolo[4,3-c]pyridin-6-yl)benzonitrile] | ≤ 10 | ≤ 10
6 | Cc1ncoc1-c1c(-c2cccc(C#N)c2)nc(N)c2nn(Cc3ccn(C)n3)nc12 [Example 45, 3-(4-amino-2-((1-methyl-1H-pyrazol-3-yl)methyl)-7-(4-methyloxazol-5-yl)-2H-[1,2,3]triazolo[4,5-c]pyridin-6-yl)benzonitrile] | ≤ 10 | ≤ 10
7 | N#Cc1cccc(-c2nc(N)c3nn(Cc4ncccc4F)nc3c2-c2ccncn2)c1 [Example 30, 3-(4-amino-2-((3-fluoropyridin-2-yl)methyl)-7-(pyrimidin-4-yl)-2H-[1,2,3]triazolo[4,5-c]pyridin-6-yl)benzonitrile] | ≤ 10 | ≤ 10
8 | Cc1cccc(Cn2cc3c(-c4ocnc4C)c(-c4cccc(C#N)c4)nc(N)c3n2)n1 [Example 13] | ≤ 10 | 10 to 100
9 | CCn1nccc1-c1c(-c2cccc(C#N)c2)nc(N)c2nn(Cc3ncccc3F)nc12 [Example 33, 3-(4-amino-7-(1-ethyl-1H-pyrazol-5-yl)-2-((3-fluoropyridin-2-yl)methyl)-2H-[1,2,3]triazolo[4,5-c]pyridin-6-yl)benzonitrile] | ≤ 10 | ≤ 10
10 | Cc1cccc(Cn2nc3c(N)nc(-c4cccc(C#N)c4)c(-c4ccncn4)c3n2)n1 [Example 24, 3-(4-amino-2-((6-methylpyridin-2-yl)methyl)-7-(pyrimidin-4-yl)-2H-[1,2,3]triazolo[4,5-c]pyridin-6-yl)benzonitrile] | ≤ 10 | ≤ 10
11 | Cc1nc(CO)c(-c2c(-c3cccc(C#N)c3)nc(N)c3nn(Cc4ccccn4)nc23)o1 [Example 20, 3-(4-amino-7-(4-(hydroxymethyl)-2-methyloxazol-5-yl)-2-(pyridin-2-ylmethyl)-2H-[1,2,3]triazolo[4,5-c]pyridin-6-yl)benzonitrile] | ≤ 10 | ≤ 10
12 | Cn1nccc1-c1c(-c2cccc(C#N)c2)nc(N)c2nn(Cc3ncccc3F)nc12 [Example 35, 3-(4-amino-2-((3-fluoropyridin-2-yl)methyl)-7-(1-methyl-1H-pyrazol-5-yl)-2H-[1,2,3]triazolo[4,5-c]pyridin-6-yl)benzonitrile] | ≤ 10 | ≤ 10
13 | N#Cc1cccc(-c2nc(N)c3cn(Cc4ccccn4)nc3c2-c2ccncn2)c1 [Example 1, 3-(4-amino-2-(pyridin-2-ylmethyl)-7-(pyrimidin-4-yl)-2H-pyrazolo[4,3-c]pyridin-6-yl)benzonitrile] | ≤ 10 | 10 to 100
